Legend:
[1] = tested on: RAW 264.7 cells; assay: NO production induced by LPS and IFN-γ after pre-incubation with sample; type: cell-based, mouse; conditions: 10 μl of 5,000 μM solution, pre-incubation 1, 2, 4 or 6 hours before stimulation
Description: (4) RAW 264.7 cells were suspended in the Dulbecco's modified Eagle's medium described in Example 20-(1) at a concentration of 3×10^5 cells/ml, and 500 μl portions thereof were placed in respective wells of a 48 well microtiter plate. The plate was incubated for 37° C. for 10 hours in the presence of 5 % carbon dioxide. To the wells was added 10 μl of aqueous 5,000 μM agarobiose solution and incubated for additional 1, 2, 4 or 6 hours. Then, the culture supernatant was removed from the well and to each well were added 500 μl of fresh Dulbecco's modified Eagle's medium and then 10 μl of aqueous 2.5 μg/ml LPS and aqueous 800 U/ml interferon-Υ (IFN-Υ, sold by Cosmobio, GZM-MG-IFN) solution. The plate was incubated for 1 hour. Then, the culture supernatant was removed from the well and to each well was added 500 μl of fresh Dulbecco's modified Eagle's medium and the plate was incubated for additional 16 hours. The concentration of NO2^− produced by oxidation of NO in the medium was measured according to the same manner as that described in Example 20-(1). As control groups, a group to which neither LPS nor IFN-Υ was added and a group to which agarobiose was not added were provided. All the measurements were carried out in duplicate.

[2] = tested on: spleen lymphocytes; assay: lymphocyte blastgenesis induced by Concanavalin A, 3H-thymidine uptake; type: cell-based, ddY mouse
Description: A spleen was taken out from a ddY mouse (Nippon SLC; male, 7 weeks old), finely minced and suspended in RPMI-1640 medium (Gibco) containing 10% fetal bovine serum (HyClone) to obtain a single cell suspension. The cell suspension was seeded into a plastic Petri dish, incubated at 37° C. for 2 hours in a carbon dioxide incubator. Adhesive cells adhered to the Petri dish were removed and non-adhesive cells were used as spleen lymphocytes. 200 μl of 2×10^6 cells/ml spleen lymphocytes suspension was seeded into each well of 96 well microtiter plate. Agarobiose at varying concentration was added to the wells other than the control well. Furthermore, to all the wells was added 5 μg of Con A (Nacalai Tesque) and the plate was incubated at 37° C. for one day in a carbon dioxide incubator. After incubation, 1 μCi of ^3H-thymidine was added to each well and incubation was continued for additional one day. Then, its uptake into cells was measured using a liquid scintillation counter.
FIG. 34 illustrates the relation between the agarobiose concentration and the ^3H-thymidine uptake in lymphocyte blastgenesis induced by Con A. The horizontal axis represents the agarobiose concentration and the vertical axis represents the ^3H-thymidine uptake (cpm). The open bar and the shaded bar represent the ^3H-thymidine uptake without stimulation and with stimulation by Con A, respectively. […]

[3] = tested on: spleen lymphocytes; assay: mixed lymphocyte reaction, 3H-thymidine uptake; type: cell-based, BALB/c mouse and C57BL/6 mouse
Description: Spleens were taken out from a BALB/c mouse (Nippon SLC; male, 6 weeks old) and a C57BL/6 mouse (Nippon SLC; male, 6 weeks old) and spleen lymphocytes were obtained by the above-described method. Each cell suspension was adjusted to a concentration of 2×10^6 cell/ml, 100 μl portions from respective suspensions were mixed together and seeded in a 96 well microtiter plate. Agarobiose at varying concentration was added to the wells other than the control well, and the plate was incubated at 37° C. for 4 days in a carbon dioxide incubator. After incubation, 1 μCi of ^3H-thymidine was added to each well, and the plate was incubated for additional 1 day. Its uptake into cells was measured using a liquid scintillation counter.
That is, FIG. 35 illustrates the relation between the agarobiose concentration and the ^3H-thymidine uptake in the mixed lymphocyte reaction. The horizontal axis represents the agarobiose concentration and the vertical axis represents ^3H-thymidine uptake (cpm). The open bar and the shaded bar represent ^3H-thymidine uptake in case where cells from either one of the lines were used independently, and in case where mixed cells from both of the lines were used, respectively. […] Thus, the inhibitory activity against lymphocyte activation of agarobiose has been recognized.

[4] = tested on: HL-60 cells; assay: apoptosis-inducing assay, cell morphology under an optical microscope; type: cell-based, human
Description: Human promyelocytic leukemia cell HL-60 (ATCC CCL-240) was incubated at 37° C. in RPMI 1640 medium (manufactured by Gibco) supplemented with 10% of fetal bovine serum (JRH Bioscience) which had been treated at 56° C. for 30 minutes, and suspended in the same medium at a concentration of 500 cells/90 μl. Each 90 μl portion of the suspension was distributed into each well of a 96 well plate (manufactured by Falcon). To the suspension in each well was added 10 μl of the above-mentioned acid decomposition solution, a 10-fold dilution of the solution or water, and incubated with 5% CO2 at 37° C. After 24 hour and 48 hour from the initiation of the incubation, the cell morphology was observed under an optical microscope. Then, according to the MTT method described in “Apoptosis Jikken Protocol” (Syuzyun-sha, Tanuma, Seiichi ed., pp. 156 (1994)), 5 mg/ml of 3-(4,5-dimethylthiazole-2-yl)-2,5-diphenyltetrazolium bromide (manufactured by Sigma) and 10 μl of phosphate buffered saline solution were added to the culture and the incubation was continued for additional 4 hours. Then, 100 μl of 2-propanol containing 0.04 N hydrochloric acid was added to the culture, and the mixture was thoroughly stirred. An absorbance at 590 nm was measured and the number of viable cells was calculated from the absorbance measured for each of the wells, which was compared each other.
Each elution peak was fractionated, collected, evaporated to dryness under reduced pressure and then dissolved in 300 μl of water. Each fraction was sterilized by filtration and its 10 μl portion was placed in a well of a 96 well microtiter plate. Then, 90 μl of RPMI 1640 medium (manufactured by Nissui) containing 10% fetal bovine serum (manufactured by Gibco) and 5,000 HL-60 cells (ATCC CCL-240) was added thereto, followed by incubation at 37° C. for 48 hours with 5% CO2. The cell morphology was observed under an optical microscope. Then, 5 mg/ml 3-(4,5-dimethylthiazole-2-yl)-2,5-diphenyltetrazolium bromide and 10 μl of phosphate buffered saline solution were added thereto and the incubation was continued for additional 4 hours. To the culture was added 100 μl of 2-propanol containing 0.04 N hydrochloric acid and the resultant mixture was thoroughly stirred. The absorbance at 590 nm was measured to determine a cell proliferation rate.

OC[C@H]1O[C@@H](O[C@H]2[C@H]3OC[C@@H]2OC(O)[C@H]3O)[C@H](O)[C@@H](O)[C@H]1O (mixture of isomers) [Agarobiose, agarobiose]
inhibition of NO production induced by LPS and IFN-γ (in words) [1]: the longer the pre-incubation time was, the higher the inhibition
inhibitory activity against lymphocyte blastgenesis induced by Con A (in words) [2]: dose-dependent inhibitory activity
inhibition of mouse lymphocyte proliferation stimulated by mitogen ([2]; Con A, 100 μg/ml): almost completely inhibits
inhibitory activity against mixed lymphocyte reaction (in words) [3]: dose-dependent inhibitory activity
inhibition of lymphocytes activation by stimulation with an alloantigen ([3]; 10 μg/ml): almost completely inhibits
apoptosis corpuscles under an optical microscope ([4]; 78 μg/ml): apoptosis corpuscles were observed
apoptosis-inducing activity (apoptosis corpuscles, in words) ([4]; preparations and fractions): had both activities

Source: patent US6911432B2, “Drugs, foods or drinks with the use of algae-derived physiologically active substances” (priority 1997, dated 2005)
